Test results published in patent US9795590B2, “Anti-inflammatory agents as virostatic compounds” (Panoptes Pharma GmbH, priority 2014, dated 2017).

How the values were obtained:
DHODH (human) = DHODH (human) (Homo sapiens, UniProt Q02127); test: DHODH in vitro enzymatic activity assay (human); assay type: biochemical
Experimental: (§1) Pharmacological parameters of compound 1 (Table 2) were determined by standard procedures, i.e. DHODH and kinase activity assays were performed according to Davis et al., (1996. The immunosuppressive metabolite of leflunomide is a potent inhibitor of human dihydroorotate dehydrogenase.

DHODH (mouse) = DHODH (mouse) (Mus musculus, UniProt O35435); test: DHODH in vitro enzymatic activity assay (mouse); assay type: biochemical; settings: read-out: Inhibitory activity in vitro (IC50) DHODH (mouse)
PI3K-α/-β/-γ/-δ = test: kinase activity assay PI3K; assay type: biochemical; settings: read-out: Inhibitory activity in vitro (IC50) PI3K-α/-β/-γ/-δ
Experimental: as §1

AKT-1/-2/-3 = test: kinase activity assay AKT; assay type: biochemical; settings: read-out: Inhibitory activity in vitro (IC50) AKT-1/-2/-3
Experimental: as §1

JAK-1/-2/-3 = test: kinase activity assay JAK; assay type: biochemical; settings: read-out: Inhibitory activity in vitro (IC50) JAK-1/-2/-3
Experimental: as §1

[1] = tested on: Human adenovirus type 2 (HAdV-2); test: plaque reduction assay HAdV-2 in A549; assay type: cell-based; settings: Human mastadenovirus C, A549, n = 8, read-out: IC50 antiviral activity against HAdV-2
Experimental: (§2) Antiviral assays were performed as described in the literature (Marschall, M. et al., 2000. Antimicrob. Agents Chemother. 44, 1588-1597; Marschall M. et al., 2012. Antimicrob. Agents Chemother. 56, 1135-1137; Kindsmüller et al., 2009. J. Virol. 83, 9045-9056; Rechter et al., 2006. Antiviral Res. 72, 197-206).

A549 = test: drug-induced cytotoxicity, microscopic evaluation, A549; assay type: cell-based; settings: HAdV-2 experiment, A549, 1-10 μM
[2] = tested on: HHV-6, human herpesvirus type 6A, strain U1102; test: antiviral assay HHV-6 in J-JHAN; assay type: cell-based; settings: n = 8, read-out: IC50 of virus replication HHV-6
Experimental: as §2

[3] = tested on: VZV, varicella zoster virus, strain Oka; test: antiviral assay VZV in primary human fibroblasts; assay type: cell-based; settings: Human alphaherpesvirus 3, Fibroblast, read-out: IC50 of virus replication VZV
Experimental: as §2

[4] = tested on: HSV-1, herpes simplex virus type 1, strain 166v VP22-GFP; test: GFP-based reporter assay HSV-1 in Vero; assay type: cell-based; settings: Human alphaherpesvirus 1, Vero, read-out: IC50 of virus replication HSV-1
Experimental: as §2

[5] = tested on: HSV-2, herpes simplex virus type 2, isolate 01-6332; test: antiviral assay HSV-2 in Vero; assay type: cell-based; settings: Human alphaherpesvirus 2, n = 4, read-out: IC50 of virus replication HSV-2
Experimental: as §2

[6] = tested on: EBV, Epstein-Barr virus, strain B95-8; test: antiviral assay EBV in 293T (T81GFP); assay type: cell-based; settings: human gammaherpesvirus 4, n = 4, read-out: IC50 of virus replication EBV
Experimental: as §2

[7] = tested on: Vaccina (vaccine virus, strain IHD-5); test: antiviral assay vaccinia virus in primary human fibroblasts; assay type: cell-based; settings: Orthopoxvirus vaccinia, Fibroblast, read-out: IC50 of virus replication Vaccina
Experimental: as §2

J-JHAN = test: drug-induced cytotoxicity, microscopic evaluation, J-JHAN; assay type: cell-based; settings: HHV-6 experiment
[8] = tested on: primary human fibroblasts; test: drug-induced cytotoxicity, microscopic evaluation, primary human fibroblasts; assay type: cell-based
Vero = test: drug-induced cytotoxicity, microscopic evaluation, Vero; assay type: cell-based
293T (T81GFP) = test: drug-induced cytotoxicity, microscopic evaluation, 293T (T81GFP); assay type: cell-based; settings: EBV experiment
HAdV A31 = test: virus yield assay HAdV A31 in A549; assay type: cell-based, human adenovirus; settings: MOI 20, supernatant transfer 4 d post-infection, n=1
Experimental: (§3) A549 cells were infected at MOI 20 and continuously treated with the given concentrations of compound 1. Virus-containing supernatants were transferred to uninfected cells at 4 d^1, 6 d^2 or 2 d^3 post-infection, respectively, and used for quantitation of infectious virus. Percentages of virus-positive cells per total cells were determined on the basis of indirect immunofluorescence staining (monoclonal anti-adenovirus hexon protein antibody; Abcam B025-AD51/ab7428) by microscopic countings: n=4 for C02, C05, D19, D37; n=3 for B03k, E04k; n=1 for A31, B03, D08, E04.

HAdV B03 = test: virus yield assay HAdV B03 in A549; assay type: cell-based, human adenovirus; settings: MOI 20, supernatant transfer 6 d post-infection, n=1
Experimental: as §3

HAdV B03k = test: virus yield assay HAdV B03k (clinical isolate) in A549; assay type: cell-based, human adenovirus; settings: MOI 20, supernatant transfer 6 d post-infection, n=3
Experimental: as §3

HAdV C02 = test: virus yield assay HAdV C02 in A549; assay type: cell-based, human adenovirus; settings: MOI 20, supernatant transfer 2 d post-infection, n=4
Experimental: as §3

HAdV C05 = test: virus yield assay HAdV C05 in A549; assay type: cell-based, human adenovirus; settings: MOI 20, supernatant transfer 2 d post-infection, n=4
Experimental: as §3

HAdV D08 = test: virus yield assay HAdV D08 in A549; assay type: cell-based, human adenovirus; settings: MOI 20, supernatant transfer 4 d post-infection, n=1
Experimental: as §3

HAdV D19 = test: virus yield assay HAdV D19 in A549; assay type: cell-based, human adenovirus; settings: MOI 20, supernatant transfer 4 d post-infection, n=4
Experimental: as §3

HAdV D37 = test: virus yield assay HAdV D37 in A549; assay type: cell-based, human adenovirus; settings: MOI 20, supernatant transfer 6 d post-infection, n=4
Experimental: as §3

HAdV E04 = test: virus yield assay HAdV E04 in A549; assay type: cell-based, human adenovirus; settings: MOI 20, supernatant transfer 6 d post-infection, n=1
Experimental: as §3

HAdV E04k = test: virus yield assay HAdV E04k (clinical isolate) in A549; assay type: cell-based, human adenovirus; settings: MOI 20, supernatant transfer 6 d post-infection, n=3
Experimental: as §3

Chain of DHODH (human) (Q02127 whole entry): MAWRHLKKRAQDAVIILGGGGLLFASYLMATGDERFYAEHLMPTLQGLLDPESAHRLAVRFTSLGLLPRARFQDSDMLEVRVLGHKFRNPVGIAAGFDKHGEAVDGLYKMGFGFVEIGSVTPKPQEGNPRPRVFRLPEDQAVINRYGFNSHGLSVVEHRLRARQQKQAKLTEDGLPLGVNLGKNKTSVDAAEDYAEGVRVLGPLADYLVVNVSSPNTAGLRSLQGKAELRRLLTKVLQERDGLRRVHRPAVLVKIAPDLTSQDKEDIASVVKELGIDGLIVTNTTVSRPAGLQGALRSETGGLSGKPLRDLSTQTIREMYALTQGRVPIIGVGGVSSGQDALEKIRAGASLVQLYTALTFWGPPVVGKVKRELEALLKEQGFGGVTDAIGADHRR
Chain of DHODH (mouse) (O35435 whole entry): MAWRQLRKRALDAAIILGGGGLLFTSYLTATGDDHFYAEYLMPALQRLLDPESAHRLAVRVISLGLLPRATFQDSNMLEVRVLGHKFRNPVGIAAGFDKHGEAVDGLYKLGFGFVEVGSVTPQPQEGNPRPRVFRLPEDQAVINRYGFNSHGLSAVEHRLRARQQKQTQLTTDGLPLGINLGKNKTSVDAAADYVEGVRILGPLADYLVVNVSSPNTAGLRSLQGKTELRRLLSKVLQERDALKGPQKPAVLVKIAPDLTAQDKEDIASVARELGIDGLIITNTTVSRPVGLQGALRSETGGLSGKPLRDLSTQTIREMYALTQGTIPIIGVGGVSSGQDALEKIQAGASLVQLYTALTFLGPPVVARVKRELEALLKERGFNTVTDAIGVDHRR

Nc1nc2c(ncn2COC(CO)CO)c(=O)[nH]1 [GCV, reference compound] gave a DHODH activity remaining (DHODH (human); at 10 μM, duplicate testings) of 100%.
With O=C(Nc1c(F)c(F)c(-c2cccc(OC(F)(F)F)c2)c(F)c1F)c1ccsc1C(=O)O [compound 1, 3-(2,3,5,6-tetrafluoro-3′-trifluoromethoxy-biphenyl-4-ylcarbamoyl)-thiophene-2-carboxylic acid] the IC50 (DHODH (human); purified human DHODH, read-out: Inhibitory activity in vitro (IC50) DHODH (human)) was 1.5 ± 0.2 nM, the IC50 (DHODH (mouse)) was 3.2 ± 0.8 nM and the IC50 (PI3K-α/-β/-γ/-δ) was greater than 1000 nM. The IC50 (AKT-1/-2/-3) was greater than 15 µM, the IC50 (JAK-1/-2/-3) was greater than 10 µM and the IC50 [1] was 560 ± 20 nM. For the same molecule, the “Cytotoxicity [1-10 μM]” value (A549) was “None”, the “Cytotoxicity [1-10 μM]” value (A549; listed as Compound 1) was “none” and the IC50 [2] was 1550 ± 310 nM. It also gave an IC50 [3] of 3.55 ± 0.26 µM, an IC50 [4] greater than 10 µM and an IC50 [5] greater than 10 µM. For the same molecule, the IC50 [6] was greater than 10 µM, the IC50 [7] was 9.85 ± 6.61 µM and the “Cytotoxicity [1-10 μM]” value (J-JHAN) was “none”. For the same molecule, the “Cytotoxicity [1-10 μM]” value ([8]; VZV experiment) was “none”, the “Cytotoxicity [1-10 μM]” value ([8]; Vaccina experiment) was “none” and the “Cytotoxicity [1-10 μM]” value (Vero; HSV-1 experiment) was “none”. For the same molecule, the “Cytotoxicity [1-10 μM]” value (Vero; HSV-2 experiment) was “none”, the “Cytotoxicity [1-10 μM]” value (293T (T81GFP)) was “none” and the “virus-positive cells (0 μM = 100), HAdV A31” value (HAdV A31; 0.37 μM) was 72%. The “virus-positive cells (0 μM = 100), HAdV A31” value (HAdV A31; 1.11 μM) was 3%, the “virus-positive cells (0 μM = 100), HAdV B03” value (HAdV B03; 0.37 μM) was 127% and the “virus-positive cells (0 μM = 100), HAdV B03” value (HAdV B03; 1.11 μM) was 29%. The “virus-positive cells (0 μM = 100), HAdV B03k” value (HAdV B03k; 0.37 μM) was 70%, the “virus-positive cells (0 μM = 100), HAdV B03k” value (HAdV B03k; 1.11 μM) was 11% and the “virus-positive cells (0 μM = 100), HAdV C02” value (HAdV C02; 0.37 μM) was 100%. The “virus-positive cells (0 μM = 100), HAdV C02” value (HAdV C02; 1.11 μM) was 9%, the “virus-positive cells (0 μM = 100), HAdV C05” value (HAdV C05; 0.37 μM) was 82% and the “virus-positive cells (0 μM = 100), HAdV C05” value (HAdV C05; 1.11 μM) was 6%. For the same molecule, the “virus-positive cells (0 μM = 100), HAdV D08” value (HAdV D08; 0.37 μM) was 6%, the “virus-positive cells (0 μM = 100), HAdV D08” value (HAdV D08; 1.11 μM) was 0% and the “virus-positive cells (0 μM = 100), HAdV D19” value (HAdV D19; 0.37 μM) was 81%. The “virus-positive cells (0 μM = 100), HAdV D19” value (HAdV D19; 1.11 μM) was 4%, the “virus-positive cells (0 μM = 100), HAdV D37” value (HAdV D37; 0.37 μM) was 96% and the “virus-positive cells (0 μM = 100), HAdV D37” value (HAdV D37; 1.11 μM) was 3%. The “virus-positive cells (0 μM = 100), HAdV E04” value (HAdV E04; 0.37 μM) was 128%, the “virus-positive cells (0 μM = 100), HAdV E04” value (HAdV E04; 1.11 μM) was 23% and the “virus-positive cells (0 μM = 100), HAdV E04k” value (HAdV E04k; 0.37 μM) was 115%. For the same molecule, the “virus-positive cells (0 μM = 100), HAdV E04k” value (HAdV E04k; 1.11 μM) was 9%.
